Reference: ChEMBL document CHEMBL5042549, “Discovery of Inhibitors of the Lipopolysaccharide Transporter MsbA: From a Screening Hit to Potent Wild-Type Gram-Negative Activity” (J Med Chem, 2022)
≈ marks a conversion by molar mass, not a printed value. Where “and” joins values, the source holds several entries; their conditions need not be identical. Equal entries are not always repeated. Calls of active or inactive are those of the source. No cut-off for these calls is given here.

How the values were obtained:
[1] = Lipophilicity, logD of compound by shake flask method; format: physicochemical; conditions: octanol/water
[2] = Inhibition of Escherichia coli MsbA preincubated for 10 mins followed by ATP addition and incubated for 1 hr by fluorescence polarization assay
[3] = tested on: Escherichia coli; experiment: Antibacterial activity against wild type Escherichia coli CFT073 (ATCC 700928) assessed as bacterial growth by broth microdilution assay; format: functional
[4] = tested on: Klebsiella pneumoniae; experiment: Antibacterial activity against wild type Klebsiella pneumoniae MGH78578 (ATCC 700721) assessed as bacterial growth inhibition by broth microdilution assay; format: functional
[5] = tested on: Enterobacter cloacae; experiment: Antibacterial activity against wild type Enterobacter cloacae (ATCC 13047) assessed as bacterial growth inhibition by broth microdilution assay; format: functional
[6] = tested on: Escherichia coli; experiment: Antibacterial activity against wild type Escherichia coli MG1655 msbA-cKO lptD (imp4213) expressing Escherichia coli MsbA assessed as bacterial growth inhibition by broth microdilution assay; format: functional
[7] = tested on: Escherichia coli; experiment: Antibacterial activity against wild type Escherichia coli MG1655 msbA-cKO lptD (imp4213) expressing Acinetobacter baumannii MsbA assessed as bacterial growth inhibition by broth microdilution assay; format: functional
[8] = tested on: Escherichia coli; experiment: Selectivity ratio of MIC for Escherichia coli MG1655 msbA-cKO lptD (imp4213) […]; format: functional
[9] = tested on: Acinetobacter baumannii; experiment: Antibacterial activity against wild type Acinetobacter baumannii (ATCC 17978) assessed as bacterial growth inhibition by broth microdilution assay; format: functional
[10] = tested on: Pseudomonas aeruginosa; experiment: Antibacterial activity against wild type Pseudomonas aeruginosa PA14 assessed as bacterial growth inhibition by broth microdilution assay; format: functional
[11] = tested on: Escherichia coli; experiment: Antibacterial activity against wild type Escherichia coli CFT073 (ATCC 700928) assessed as induction of cell lysis at 50 microM by electron microscopy; format: functional, organism-based
[12] = tested on: Klebsiella pneumoniae; experiment: Antibacterial activity against wild type Klebsiella pneumoniae MGH78578 (ATCC 700721) assessed as membrane stacking at 50 microM by electron microscopy; format: functional, organism-based
[13] = tested on: Enterobacter cloacae; experiment: Antibacterial activity against wild type Enterobacter cloacae (ATCC 13047) assessed as membrane stacking at 50 microM by electron microscopy; format: functional, organism-based
[14] = Clearance in CD-1 mouse at 1 mg/kg, iv measured upto 8 hrs by LC-MS/MS analysis; format: ADME, organism-based; conditions: in vivo
[15] = Half life in CD-1 mouse at 1 mg/kg, iv measured upto 8 hrs by LC-MS/MS analysis; format: ADME, organism-based; conditions: in vivo
[16] = tested on: Escherichia coli; experiment: Antibacterial activity against wild type Escherichia coli MG1655 carrying lptD (imp4213) assessed as bacterial growth inhibition by broth microdilution assay; format: functional
[17] = tested on: A549; experiment: Cytotoxicity against human A549 cells at 50 uM; format: toxicity, cell-based; conditions: a549, 50 µM
[18] = tested on: Jurkat; experiment: Cytotoxicity against human Jurkat cells at 50 uM; format: toxicity, cell-based
[19] = tested on: HEK293; experiment: Cytotoxicity against human HEK293 cells at 50 uM; format: toxicity, cell-based; conditions: hek293, 50 µM

Compound: C[C@H](Oc1ccc2ccc(/C=C/c3nn[nH]n3)c(C3CC3)c2c1)c1c(Cl)cccc1Cl
- logD [1]: 4.3
- IC50 [2]: 3 nM
- MIC [3]: 6 µM and 2.7 µg/mL
- MIC [4]: 6 µM (≈ 2.71 µg/mL)
- MIC [5]: 6 µM (≈ 2.71 µg/mL)
- MIC [6]: 0.8 µM (≈ 0.361 µg/mL)
- MIC [7]: > 71 µM
- Selectivity ratio [8]: > 89
- MIC [9]: > 100 µM
- MIC [10]: > 100 µM
- Activity [11]: Active
- Activity [12]: Active
- Activity [13]: Active
- clearance [14]: 8 mL/min/kg
- half-life [15]: 1.4 h

Compound: C[C@H](Oc1cccc(C2CC2)c1)c1c(Cl)ccc(F)c1Cl
- logD [1]: 5
- IC50 [2]: > 10000 nM
- MIC [3]: > 100 µM
- MIC [16]: > 100 µM

Compound: C[C@H](Oc1ccc2ncc(/C=C/c3nn[nH]n3)c(C3CC3)c2c1)c1c(Cl)cccc1Cl
- logD [1]: 4.3
- IC50 [2]: 2 nM
- MIC [3]: 12 µM
- MIC [4]: 12 µM (≈ 5.43 µg/mL)
- MIC [5]: 25 µM (≈ 11.3 µg/mL)
- MIC [6]: < 0.1 µM
- MIC [7]: 50 µM (≈ 22.6 µg/mL)
- Selectivity ratio [8]: > 500
- Activity [17]: Non-Toxic
- Activity [18]: Non-Toxic
- Activity [19]: Non-Toxic

Compound: C[C@H](Oc1ccc2ncc(/C=C/c3nn[nH]n3)c(C(F)F)c2c1)c1c(Cl)cccc1Cl
- logD [1]: 3.3
- IC50 [2]: 8 nM
- MIC [3]: 25 µM
- MIC [4]: 25 µM (≈ 11.6 µg/mL)
- MIC [5]: 50 µM (≈ 23.1 µg/mL)
- MIC [6]: 1.6 µM (≈ 0.74 µg/mL)
- MIC [7]: 50 µM (≈ 23.1 µg/mL)
- Selectivity ratio [8]: 31
- Activity [17]: Non-Toxic
- Activity [18]: Non-Toxic
- Activity [19]: Non-Toxic

Compound: C[C@H](Oc1ccc(/C=C/C(=O)O)c(C2CC2)c1)c1c(Cl)ccc(F)c1Cl
- logD [1]: 3.6
- IC50 [2]: 100 nM
- MIC [3]: > 100 µM
- MIC [16]: 100 µM (≈ 39.5 µg/mL)

Compound: C[C@H](Oc1cccc(C2CC2)n1)c1c(Cl)ccc(F)c1Cl
- logD [1]: 4.9
- IC50 [2]: > 10000 nM
- MIC [3]: > 100 µM
- MIC [16]: > 100 µM

Compound: C[C@H](Oc1ccc(NC(=O)CC(N)=O)c(C2CC2)c1)c1c(Cl)ccc(F)c1Cl
- logD [1]: 3.9
- IC50 [2]: 40 nM
- MIC [3]: > 100 µM
- MIC [16]: 25 µM (≈ 10.6 µg/mL)

Compound: C[C@H](Oc1ccc(/C=C/C(=O)O)c(CC2CC2)c1)c1c(Cl)ccc(F)c1Cl
- logD [1]: 3.9
- IC50 [2]: 460 nM
- MIC [3]: > 100 µM
- MIC [16]: 50 µM (≈ 20.5 µg/mL)
